What all share (type): biochemical
Assay [1] deals with T1, Human PKK (Homo sapiens, UniProt P03952).
T1 construct: purchased Enzyme Research Laboratories
Description: Inhibition of PKK (Ki). The conditions noted are these: substrate KM, enzyme PKK. The protocol: The ability of compounds of formula (I) to inhibit plasma kallikrein (PKK), Factor XIIa (FXIIa), Factor XIa (FXIa), Factor Xa (FXa), Factor IIa (alpha-thrombin; FIIa), plasmin, trypsin, tissue kallikrein 1 (TK1), Factor VIIa (FVIIa), or FVIIa complexed with Tissue Factor, phospholipids and CaCl2 (FVIIa/TF/PL/CaCl2) is determined using the following biochemical assays in assay buffer (100 mM Tris, 150 mM NaCL, adjusted to a pH of 7.8 with HCl, and containing 0.1% (w/v) BSA and 0.05% (v/v) Tween20) in the presence of 1% (v/v) DMSO:
Human PKK (1.78 nM or 0.025 U/mL; Enzyme Research Laboratories) is incubated at 24° C. with 0.25 mM fluorogenic substrate H-Pro-Phe-Arg-AMC (11295 from Bachem) and various concentrations of the test compound in assay buffer. Measurements are performed in a kinetic interval every 2nd minute for 16 min using a Spectramax M5 (Molecular Devices) with the following settings of the wavelength excitation of 350 nm and wavelength emission of 450 nm.
The pIC50 values are then fitted using a four-parametric fitting procedure using GraphPad Prism (version 6; GraphPad Software, Inc.). Respective Ki values are obtained by correction of the IC50 values for the respective KM value of the used substrate (see Table A for the obtained KM values of the used substrates) using the following formula:
[formula] Where the IC50 is in molar and the KM value in mM.

Assay [2] addresses T1, Human PKK. Description: Inhibition of PKK using an endpoint assay (human PKK). To be noted: fluorogenic substrate H-Pro-Phe-Arg-AMC, 1 h room temperature, method names human or rat PKK, table does not say which. The essentials:
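Endpoint fluorescence (ex 355 nm, em 460 nm) after stopping with 1 μM final PPACK II. Buffer: Tris 100 mM pH 7.8, NaCl 150 mM, BSA 0.1%, Tween20 0.05%, with 1% DMSO present; enzyme is human plasma kallikrein.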

Assay [3] addresses T2, PKK in kaolin activated human platelet poor plasma (Homo sapiens, UniProt P03952).
T2 construct: Platelet poor plasma (PPP) obtained from human wholeblood; from tissue
Description: Inhibition of PKK in kaolin activated human PPP.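 Note: readout is the rate of fluorogenic substrate cleavage in rfu per min.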 To be noted: 25-750 μg/mL kaolin, global fit, text b200 calls the values IC90. Here is the method:
Platelet poor plasma (PPP) obtained from human wholeblood, anticoagulated with Na-Citrate, is incubated with various concentrations of the test compound together with either 25, 75, 250, or 750 μg/mL kaolin in assay buffer for 20 min at 37° C. such that for each kaolin dose used a concentration response is obtained for the test compound.

Assay [4] deals with T3, human TK1 (Homo sapiens, UniProt P06870).
T3 construct: purchased R&D Systems
Description: Inhibition of TK1 (Ki). The conditions noted are these: activated human TK1, substrate H-Pro-Phe-Arg-AMC, 24° C. The essentials: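 Trypsin-activated human TK1 (31.25 nM) incubated at 24° C with 0.1 mM H-Pro-Phe-Arg-AMC and compound in Tris pH 7.8, 150 mM NaCl, 0.1% BSA, 0.05% Tween20, 1% DMSO. AMC fluorescence (ex 350/em 450 nm) read kinetically over 16 min; IC50 from four-parameter fit, converted to Ki using substrate KM.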

Each structure is given as a SMILES string. Peptide text beside a SMILES is read from it. * marks the point of attachment. AMC = Cc1cc(=O)oc2cc(N*)ccc12

T2 sequence (P03952 391-638 limits assumed): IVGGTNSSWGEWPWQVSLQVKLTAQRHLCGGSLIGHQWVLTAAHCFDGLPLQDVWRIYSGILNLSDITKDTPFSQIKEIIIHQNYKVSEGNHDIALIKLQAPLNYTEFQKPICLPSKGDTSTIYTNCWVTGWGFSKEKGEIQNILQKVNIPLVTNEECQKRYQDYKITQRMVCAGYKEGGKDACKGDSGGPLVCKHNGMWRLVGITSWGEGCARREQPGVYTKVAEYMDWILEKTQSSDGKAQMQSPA
T2 sequence (P03952 20-390 limits assumed): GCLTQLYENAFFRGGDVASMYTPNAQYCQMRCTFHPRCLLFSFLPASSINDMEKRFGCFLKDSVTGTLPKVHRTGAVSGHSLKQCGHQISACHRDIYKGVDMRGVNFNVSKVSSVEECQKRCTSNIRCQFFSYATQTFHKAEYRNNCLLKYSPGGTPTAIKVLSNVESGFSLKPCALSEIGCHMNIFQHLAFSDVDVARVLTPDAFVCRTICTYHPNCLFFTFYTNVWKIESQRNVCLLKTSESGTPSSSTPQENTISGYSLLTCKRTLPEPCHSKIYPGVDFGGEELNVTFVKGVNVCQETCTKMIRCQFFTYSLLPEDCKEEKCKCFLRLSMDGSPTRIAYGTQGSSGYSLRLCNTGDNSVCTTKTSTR
T1 sequence (P03952 20-390 limits assumed): as above
T1 sequence (P03952 391-638 limits assumed): as the sequence (P03952 391-638 limits assumed) above
T3 sequence (P06870 25-262): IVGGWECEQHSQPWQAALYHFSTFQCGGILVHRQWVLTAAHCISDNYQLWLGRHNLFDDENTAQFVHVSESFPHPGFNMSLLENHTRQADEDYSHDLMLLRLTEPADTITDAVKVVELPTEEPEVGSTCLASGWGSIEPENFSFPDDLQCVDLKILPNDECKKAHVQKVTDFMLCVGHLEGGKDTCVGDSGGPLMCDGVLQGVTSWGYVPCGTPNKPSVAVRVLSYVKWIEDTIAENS

Consider `Cc1cc(=O)oc2cc(NC(=O)[C@H](CCCNC(=N)N)NC(=O)[C@H](Cc3ccccc3)NC(=O)[C@@H]3CCCN3)ccc12` [Example I1295, H-Pro-Phe-Arg-AMC] (H-Pro-Phe-Arg-{AMC}), for which the Km in assay [1] amounted to 160 µM.

In the case of `Cn1cnc2c1CC[C@H]2NC(=O)c1cn(Cc2cnc(N3CC4CC4C3)cc2C(F)(F)F)cn1` (stereo partly drawn) [Example 121, 1-[(6-{3-Azabicyclo[3.1.0]hexan-3-yl}-4-(trifluoromethyl)pyridin-3-yl)methyl]-N-[(4R)-1-methyl-1H,4H,5H,6H-cyclopenta[d]imidazol-4-yl]-1H-imidazole-4-carboxamide], the IC50 in assay [2] came out at 1.6 nM; in assay [3], 514 nM. Moreover, the Ki in assay [4] was > 10000 nM.

Turning to `Cc1c(Cn2cc(C(=O)N[C@@H]3CCc4c3ncn4C)cn2)ccc(N2CC3CC3C2)c1C#N` (stereo partly drawn) [Example 193, 1-[(4-{3-azabicyclo[3.1.0]hexan-3-yl}-3-cyano-2-methylphenyl)methyl]-N-[(4R)-1-methyl-1H,4H,5H,6H-cyclopenta[d]imidazol-4-yl]-1H-pyrazole-4-carboxamide], the IC50 stood at 0.4 nM in assay [2] and 253 nM in assay [3]. Also, in assay [4], the Ki was > 10000 nM.

For `Cc1nc(N2CC3C(C2)C3(F)F)ncc1Cn1cc(C(=O)N[C@@H]2CCc3c2ncn3C)c2cncnc21` (stereo partly drawn) [Example 175, 7-[(2-{6,6-Difluoro-3-azabicyclo[3.1.0]hexan-3-yl}-4-methylpyrimidin-5-yl)methyl]-N-[(4R)-1-methyl-1H,4H,5H,6H-cyclopenta[d]imidazol-4-yl]-7H-pyrrolo[2,3-d]pyrimidine-5-carboxamide], the figures for the IC50 in assay [2] and in assay [3] were 2.9 nM and 822 nM, respectively. Besides, the inhibition constant (Ki) in assay [4] is > 10000 nM.

`Cn1cnc2c1CC[C@H]2NC(=O)c1cnn(Cc2cnc(N3CC4CC4C3)cc2C(F)(F)F)c1` (stereo partly drawn) [Example 115, 1-[(6-{3-Azabicyclo[3.1.0]hexan-3-yl}-4-(trifluoromethyl)pyridin-3-yl)methyl]-N-[(4R)-1-methyl-1H,4H,5H,6H-cyclopenta[d]imidazol-4-yl]-1H-pyrazole-4-carboxamide]: the IC50 in assay [2] was found to be 4.1 nM; in assay [3], 2660 nM. Moreover, the Ki in assay [4] is > 10000 nM.

For `COCc1nn(Cc2ccc(N3CC4C(C3)C4(F)F)nc2C)cc1C(=O)N[C@@H]1CCc2c1ncn2C` (stereo partly drawn) [Example 126, 1-[(6-{6,6-Difluoro-3-azabicyclo[3.1.0]hexan-3-yl}-2-methylpyridin-3-yl)methyl]-3-(methoxymethyl)-N-[(4R)-1-methyl-1H,4H,5H,6H-cyclopenta[d]imidazol-4-yl]-1H-pyrazole-4-carboxamide], the IC50 was found to be 0.6 nM in assay [2] and 681 nM in assay [3]. Also, the inhibition constant Ki in assay [4] was > 10000 nM.

With `Cc1c(Cn2cnc(C(=O)N[C@@H]3CCc4c3ncn4C)c2)cnc(N2CC3CC3C2)c1C#N` (stereo partly drawn) [Example 118, 1-[(6-{3-Azabicyclo[3.1.0]hexan-3-yl}-5-cyano-4-methylpyridin-3-yl)methyl]-N-[(4R)-1-methyl-1H,4H,5H,6H-cyclopenta[d]imidazol-4-yl]-1H-imidazole-4-carboxamide], the IC50 in assay [2] was determined as 0.3 nM; in assay [3] it was 157 nM. Further, in assay [4], the inhibitory constant (Ki) was > 10000 nM.

As for `Cc1nc(N2CC3CC3C2)c(C#N)cc1Cn1cc(C(=O)N[C@@H]2CCc3c2ncn3C)cn1` (stereo partly drawn) [Example 128, 1-[(6-{3-Azabicyclo[3.1.0]hexan-3-yl}-5-cyano-2-methylpyridin-3-yl)methyl]-N-[(4R)-1-methyl-1H,4H,5H,6H-cyclopenta[d]imidazol-4-yl]-1H-pyrazole-4-carboxamide], the figures for the IC50 in assay [2] and in assay [3] were 5.1 nM and 1390 nM, respectively. The Ki in assay [4] was > 10000 nM.

With `CCc1nc(N2CC3C(C2)C3(F)F)ccc1Cn1cc(C(=O)N[C@@H]2CCc3c2ncn3C)cn1` (stereo partly drawn) [Example 36, 1-[(6-{6,6-Difluoro-3-azabicyclo[3.1.0]hexan-3-yl}-2-ethylpyridin-3-yl)methyl]-N-[(4R)-1-methyl-1H,4H,5H,6H-cyclopenta[d]imidazol-4-yl]-1H-pyrazole-4-carboxamide], the IC50 in assay [2] worked out at 0.5 nM; in assay [3], 180 nM. Also, in assay [4], the Ki was > 10000 nM.

Turning to `Cn1cnc2c1CC[C@H]2NC(=O)c1cn(Cc2ccc(N3CC4CC4C3)nc2)nn1` (stereo partly drawn) [Example 135, 1-[(6-{3-Azabicyclo[3.1.0]hexan-3-yl}pyridin-3-yl)methyl]-N-[(4R)-1-methyl-1H,4H,5H,6H-cyclopenta[d]imidazol-4-yl]-1H-1,2,3-triazole-4-carboxamide], the IC50 was found to be 4.2 nM in assay [2] and 909 nM in assay [3]. Further, in assay [4], the Ki was > 10000 nM.

Consider `Cc1nc(N2CC3CC3C2)ccc1Cn1cc(C(=O)N[C@@H]2CCc3c2ncn3C)c2cncnc21` (stereo partly drawn) [Example 173, 7-[(6-{3-Azabicyclo[3.1.0]hexan-3-yl]-2-methylpyridin-3-yl)methyl]-N-[(4R)-1-methyl-1H,4H,5H,6H-cyclopenta[d]imidazol-4-yl]-7H-pyrrolo[2,3-d]pyrimidine-5-carboxamide], for which the IC50 in assay [2] is 0.6 nM; in assay [3], 729 nM. Further, the Ki in assay [4] is > 10000 nM.

`Cn1cnc2c1CC[C@H]2NC(=O)c1cnn(Cc2ccc(N3CC4CC4C3)nc2Cl)c1` (stereo partly drawn) [Example 127, 1-[(6-{3-Azabicyclo[3.1.0]hexan-3-yl}-2-chloropyridin-3-yl)methyl]-N-[(4R)-1-methyl-1H,4H,5H,6H-cyclopenta[d]imidazol-4-yl]-1H-pyrazole-4-carboxamide]: the figures for the IC50 in assay [2] and in assay [3] were 1.2 nM and 1680 nM, respectively. Moreover, the Ki in assay [4] was > 10000 nM.

In the case of `Cc1nc(N2CC3(CC3)C2)ccc1Cn1cc(C(=O)N[C@@H]2CCc3c2ncn3C)cn1` [Example 169, 1-[(6-{5-Azaspiro[2.3]hexan-5-yl}-2-methylpyridin-3-yl)methyl]-N-[(4R)-1-methyl-1H,4H,5H,6H-cyclopenta[d]imidazol-4-yl]-1H-pyrazole-4-carboxamide], the IC50 in assay [2] came out at 0.6 nM; in assay [3], 485 nM. In addition, the Ki in assay [4] is > 10000 nM.

As for `Cc1nc(N2CC3CC3C2)ccc1Cn1cc(C(=O)N[C@@H]2CCc3c2ncn3C)c(CO)n1` (stereo partly drawn) [Example 217, 1-[(6-{3-Azabicyclo[3.1.0]hexan-3-yl}-2-methylpyridin-3-yl)methyl]-3-(hydroxymethyl)-N-[(4R)-1-methyl-1H,4H,5H,6H-cyclopenta[d]imidazol-4-yl]-1H-pyrazole-4-carboxamide], the IC50 was 0.9 nM in assay [2] and 624 nM in assay [3]. In addition, the inhibition constant Ki in assay [4] is > 10000 nM.

`Cn1cnc2c1CC[C@H]2NC(=O)c1cn(Cc2ccc(N3CC4CC4C3)c(C#N)c2)cn1` (stereo partly drawn) [Example 196, 1-[(4-{3-azabicyclo[3.1.0]hexan-3-yl}-3-cyanophenyl)methyl]-N-[(4R)-1-methyl-1H,4H,5H,6H-cyclopenta[d]imidazol-4-yl]-1H-imidazole-4-carboxamide]: the values for the IC50 in assay [2] and in assay [3] were 1.5 nM and 350 nM, respectively. Moreover, the Ki in assay [4] was > 10000 nM.

In general, Km refers to the substrate concentration at which the rate is half of its maximum. As usually defined, the IC50 is the concentration needed to halve the response being measured. What is called Ki is the equilibrium dissociation constant of an inhibitor or competing ligand from its target. A higher Ki goes with lower affinity.
